Here are results for one molecule from patent US20170136008A1, “OXABICYCLOHEPTANES AND OXABICYCLOHEPTENES FOR THE TREATMENT OF OVARIAN CANCER” (priority 2014, published 2017).

Each structure is given as a SMILES string.

The subject of test [1] is PEO6 ovarian cancer cell line. As to the kind of experiment: MTT cytotoxicity assay, PEO6. The class given is cell-based, human. The following applies: Homo sapiens, read-out: IC50, viability of ovarian cancer cell line. How it is done:
(§1) SKOV-3 ovarian cancer cells were purchased from American Type Culture Collection (ATCC) (Manassas, Va.). SKOV-3 cells were cultured in McCoy's 5A medium (ATCC, Manassas, Va.) supplemented with 10% fetal bovine serum and 100 units/mL penicillin G sodium, 100 ug/mL streptomycin sulfate, and 292 μg/ml, L-glutamine (BioWhittaker, Wakersville, Md.). Luciferase-expressing cells were generated by infecting SKOV-3 cells with pCLNCX-luciferase retrovirus (SKOV-3-Luc) as previously reported (Wei, B. R. et al. 2009). Human OVCAR-8 ovarian cancer cells were provided by the National Cancer Institute (part of the NCI-60 collection). The PEO1, PEO4, and PEO6 ovarian cancer cell lines have previously been characterized (Langdon, S. P. et al. 1988) and were kindly provided by Dr. Ian Goldlust (National Center for Advancing Translational Sciences, Shady Grove, Md.). […]
(§2) Cell survival was measured by the 3-(4,5-dimethylthiazol-2-yl)-2,5-diphenyltetrazolium bromide (MTT, Invitrogen) assay. […] Absorbance values were determined at […] on a Spectra Max 250 spectrophotometer (Molecular Devices, Sunnyvale, Calif.). […] Cell viability was analyzed via the MTT assay as described above. […]

Test [2] relates to OVCAR-8 ovarian cancer cells. Kind of test: MTT cytotoxicity assay, OVCAR-8. The following applies: Homo sapiens, OVCAR-8, OVCAR8, read-out: IC50, viability of ovarian cancer cell line. The class given is cell-based, human. As for the experimental part:
as §1, §2
A general note: Tetrazolium assays rely on reduction of a dye to a coloured formazan, in cell work by metabolically active cells.

In test [3] the test system is PEO1-Missense (PEO-1m) ovarian cancer cell line. As to the kind of experiment: MTT cytotoxicity assay, PEO1-Missense. The class given is cell-based, human. The following applies: Homo sapiens, read-out: IC50, viability of ovarian cancer cell line. As for the experimental part:
as §1, §2

The subject of the next test is OVCAR-8 NT shRNA cells. As to the kind of experiment: Cell viability (MTT) assay, OVCAR-8 NT shRNA. The class given is cell-based. The following applies: Homo sapiens; OVCAR-8 NT shRNA (control). As for the experimental part:
Cell survival was measured by the 3-(4,5-dimethylthiazol-2-yl)-2,5-diphenyltetrazolium bromide (MTT, Invitrogen) assay. Cells were seeded at a density of 5,000 cells per well in 96-well plates and incubated at 37° C. in humidified 5% CO2 for 24 hours. The 50% inhibitory concentration (IC50) values were defined as the drug concentrations required to reduce cellular proliferation to 50% of the untreated control well. […] All MTT assays were carried out according to the manufacturer's instructions (Molecular Probes, Eugen, Oreg.). Absorbance values were determined at […] on a Spectra Max 250 spectrophotometer (Molecular Devices, Sunnyvale, Calif.). All MTT assays were performed in triplicate. […] Cells were treated with both drugs for 72 h. Cell viability was analyzed via the MTT assay as described above. Experiments were performed in triplicate, and the data are presented as a percent mean±SD.
To stably knockdown expression of PP2AC, a pLKO.1-puro plasmid-based […] shRNA targeting the sequence: […] (clone ID:TRCN0000002483, Sigma-Aldrich) was employed (PP2AC-shRNA). Additionally, a non-targeting shRNA plasmid (NT-shRNA) that targets no known human sequence was utilized as a control. […]

As for `CN1CCN(C(=O)C2C(C(=O)O)[C@H]3CC[C@@H]2O3)CC1` (stereo partly shown) [LB100], the IC50 turned out to be 5.1 ± 0.2 µM in test [1], 5.5 ± 0.5 µM in test [2], 6.2 ± 1.5 µM in test [3] and 15.7 ± 1.3 µM in the test on OVCAR-8 NT shRNA cells.

What is called IC50 is the concentration needed to halve the response being measured.
